Measurements published in patent publication US10556907B2 (AbbVie Inc., priority 2015, dated 2020).
Structures can show the parent of a compound that is named as a salt.

How the values were obtained:
Test in all cases: Method 1: intracellular Ca2+ release (FLIPR, Calcium 5) in recombinant CHO-K1 cells
Format in all cases: cell-based
[1] = molecular target: T1, human S1PR1 receptor (Homo sapiens, UniProt P21453); details: (1): determined with method 1; read-out: S1P1 EC50
T1 construct: host or cells: CHO-K1
T1 sequence (P21453 whole entry): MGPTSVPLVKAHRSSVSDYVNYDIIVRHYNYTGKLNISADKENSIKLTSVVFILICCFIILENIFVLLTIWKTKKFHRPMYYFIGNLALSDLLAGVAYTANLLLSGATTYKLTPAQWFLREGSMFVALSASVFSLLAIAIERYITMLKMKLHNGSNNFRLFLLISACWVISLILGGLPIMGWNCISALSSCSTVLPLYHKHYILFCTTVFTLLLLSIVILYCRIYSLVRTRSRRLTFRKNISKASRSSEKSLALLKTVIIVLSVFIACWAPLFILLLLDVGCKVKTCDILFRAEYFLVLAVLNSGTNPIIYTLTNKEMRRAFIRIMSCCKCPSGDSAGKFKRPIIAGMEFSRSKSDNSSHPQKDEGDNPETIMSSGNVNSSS
In short: (§1)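 For antagonist mode, compounds were pre-incubated 10 min before phospho-fingolimod at EC80; in agonist mode, compounds were added directly to Calcium 5-loaded CHO-K1 cells co-expressing Gq/i5. Fluorescence was measured on FLIPR, and EC50 was fitted relative to the phospho-fingolimod curve.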

[2] = molecular target: T2, human S1PR3 receptor (Homo sapiens, UniProt Q99500); details: (1): determined with method 1; read-out: S1P3 EC50
T2 construct: host or cells: CHO-K1
T2 sequence (Q99500 whole entry): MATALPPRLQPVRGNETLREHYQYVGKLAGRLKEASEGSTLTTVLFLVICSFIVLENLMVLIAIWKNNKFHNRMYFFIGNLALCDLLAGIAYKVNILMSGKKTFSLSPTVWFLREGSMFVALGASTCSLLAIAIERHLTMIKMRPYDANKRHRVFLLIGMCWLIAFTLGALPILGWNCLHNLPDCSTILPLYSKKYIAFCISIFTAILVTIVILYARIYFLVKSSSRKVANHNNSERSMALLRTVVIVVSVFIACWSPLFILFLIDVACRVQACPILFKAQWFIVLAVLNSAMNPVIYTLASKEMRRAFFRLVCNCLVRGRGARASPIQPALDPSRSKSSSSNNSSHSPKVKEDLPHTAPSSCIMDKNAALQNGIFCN
In short: as §1

[3] = molecular target: T3, human S1PR5 receptor (Homo sapiens, UniProt Q9H228); details: agonist potency, determined with method 1 (symbols A-D); read-out: S1P5 EC50 range
T3 construct: host or cells: CHO-K1
T3 sequence (Q9H228 whole entry): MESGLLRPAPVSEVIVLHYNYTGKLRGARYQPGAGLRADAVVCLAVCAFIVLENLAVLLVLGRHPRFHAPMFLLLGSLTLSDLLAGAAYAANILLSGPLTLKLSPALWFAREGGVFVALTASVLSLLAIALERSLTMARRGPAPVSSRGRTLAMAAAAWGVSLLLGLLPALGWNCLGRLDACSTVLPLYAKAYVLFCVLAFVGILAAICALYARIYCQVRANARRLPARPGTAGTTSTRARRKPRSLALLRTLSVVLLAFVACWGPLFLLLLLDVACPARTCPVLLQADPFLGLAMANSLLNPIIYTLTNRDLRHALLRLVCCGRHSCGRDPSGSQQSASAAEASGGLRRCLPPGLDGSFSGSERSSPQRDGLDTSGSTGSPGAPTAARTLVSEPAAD
In short: as §1

[4] = molecular target: T4, human S1PR4 receptor (Homo sapiens, UniProt O95977); details: (1): determined with method 1; read-out: S1P4 EC50
T4 construct: host or cells: CHO-K1
T4 sequence (O95977 1-384): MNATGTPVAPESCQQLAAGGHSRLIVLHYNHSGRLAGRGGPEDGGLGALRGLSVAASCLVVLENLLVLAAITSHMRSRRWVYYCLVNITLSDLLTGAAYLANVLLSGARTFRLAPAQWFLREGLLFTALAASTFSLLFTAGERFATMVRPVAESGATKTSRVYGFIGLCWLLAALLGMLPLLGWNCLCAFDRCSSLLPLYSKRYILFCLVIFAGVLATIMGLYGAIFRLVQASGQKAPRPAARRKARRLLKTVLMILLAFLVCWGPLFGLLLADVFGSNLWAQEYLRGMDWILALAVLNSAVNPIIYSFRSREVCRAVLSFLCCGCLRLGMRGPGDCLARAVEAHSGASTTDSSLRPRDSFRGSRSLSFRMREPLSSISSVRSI
In short: as §1

Row | SMILES | EC50 [1] [nM] | EC50 [2] [nM] | EC50 [3] [nM] | EC50 [4] [nM]
1 | CC(CC(=O)O)CN1CCc2nc(-c3ccc(OCc4ccccc4C(F)(F)F)cc3F)ncc2C1 (centres unmarked) [Compound 260, 4-[2-[2-fluoro-4-[[2-(trifluoromethyl)phenyl]methoxy]phenyl]-7,8-dihydro-5H-pyrido[4,3-d]pyrimidin-6-yl]-3-methyl-butanoic acid 2,2,2-trifluoroacetic acid salt] | > 1000 | > 1000 | 10 to 100 | > 1000
2 | Cc1cccc(COc2ccc(-c3ncc4c(n3)CCN(CC(C)CC(=O)O)C4)cc2)c1 (centres unmarked) [Compound 230, 3-methyl-4-(2-(4-((3-methylbenzyl)oxy)phenyl)-7,8-dihydropyrido[4,3-d]pyrimidin-6(5H)-yl)butanoic acid] | < 1000 | > 1000 | < 10 | > 1000
3 | CC(CCN1CCc2nc(-c3ccc(OCc4ccccc4)cc3)c(F)cc2C1)C(=O)O (centres unmarked) [Compound 180, 4-(2-(4-(benzyloxy)phenyl)-3-fluoro-7,8-dihydro-1,6-naphthyridin-6(5H)-yl)-2-methylbutanoic acid] | < 1000 | > 1000 | < 10 | > 1000
4 | CC(CN1CCc2nc(-c3ccc(OCc4ccc(Cl)cc4)cc3)ncc2C1)C(=O)O (centres unmarked) [Compound 12, 3-(2-(4-((4-chlorobenzyl)oxy)phenyl)-7,8-dihydropyrido[4,3-d]pyrimidin-6(5H)-yl)-2-methylpropanoic acid] | > 1000 | > 1000 | < 10 | > 1000
5 | CC(CC(=O)O)CN1CCc2nc(-c3ccc(C(F)(F)Cc4ccc(Cl)cc4F)cc3)ncc2C1 (centres unmarked) [Compound 277] | > 1000 | > 1000 | 10 to 100 | > 1000
6 | O=C(O)CCN1CCc2cc(-c3ccc(OCc4ccc(Cl)cc4)cc3)ncc2C1 [Compound 174, 3-(6-((4(4-chlorobenzyl)oxy)phenyl)-3,4-dihydro-2,7-naphthyridin-2(1H)-yl)propanoic acid] | > 1000 | > 1000 | < 10 | > 1000
7 | CC(CC(=O)O)CN1CCc2nc(-c3ccc(OCc4ccccc4C(F)(F)F)cc3)ncc2C1 (centres unmarked) [Compound 254, 3-methyl-4-[2-[4-[[2-(trifluoromethyl)phenyl]methoxy]phenyl]-7,8-dihydro-5H-pyrido[4,3-d]pyrimidin-6-yl]butanoic acid 2,2,2-trifluoroacetic acid salt] | > 1000 | > 1000 | < 10 | > 1000
8 | O=C(O)CC1(CN2CCc3nc(-c4ccc(OCc5cccc(Cl)c5)cc4)ncc3C2)CC1 [Compound 285, 2-((4(2-(4-((3-chlorobenzyl)oxy)phenyl)-7,8-dihydropyrido[4,3-d]pyrimidin-6(5H)-yl)methyl)cyclopropyl)acetic acid] | > 1000 | > 1000 | 100 to 1000 | < 1000
9 | CCOc1ccc(C#Cc2ncc3c(n2)CCN(C2CC(C(=O)O)C2)C3)cc1 (centres unmarked) [Compound 56, 3-(2-((4-ethoxyphenyl)ethynyl)-7,8-dihydropyrido[4,3-d]pyrimidin-6(5H)-yl)cyclobutanecarboxylic acid] | > 1000 | > 1000 | 1000 to 10000 | > 1000
10 | O=C(O)C1(CN2CCc3nc(-c4ccc(Cc5ccccc5)cc4)ncc3C2)CC1 [Compound 218, 1-((2-(4-benzylphenyl)-7,8-dihydropyrido[4,3-d]pyrimidin-6(5H)-yl)methyl)cyclopropanecarboxylic acid] | > 1000 | > 1000 | 1000 to 10000 | > 1000
11 | CC(CC(=O)O)CN1CCc2nc(-c3ccc(OCc4cccc(Cl)c4Cl)cc3)ncc2C1 (centres unmarked) [Compound 268, 4-[2-[4-[(2,3-dichlorophenyl)methoxy]phenyl]-7,8-dihydro-5H-pyrido[4,3-d]pyrimidin-6-yl]-3-methyl-butanoic acid 2,2,2-trifluoroacetic acid salt] | > 1000 | > 1000 | 10 to 100 | > 1000
